Where “and” joins values, the source holds several entries; their conditions need not be identical. Equal values may be shown once.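 Growth conditions: 96-well plates. Treatment: test compound, 48 hours, 5 concentrations. Analysis: linear interpolation between bracketing concentrations; unreached endpoints set to highest concentration. Abbreviation: GI50, concentration required for 50% inhibition of growth. TGI denotes the concentration required for complete inhibition of growth.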
Experiments:
Experiment in all cases: NCI tumour cell line growth inhibition, 48 h
[1] = tested on: OVCAR-4 ovarian
[2] = tested on: LOX IMVI melanoma
[3] = tested on: MCF7 breast
[4] = tested on: NCI-H23 lung
[5] = tested on: ACHN renal
[6] = tested on: CAKI-1 renal
[7] = tested on: MDA-MB-231 breast
[8] = tested on: MDA-MB-435
[9] = tested on: RXF 393 renal
[10] = tested on: SK-MEL-2 melanoma

| Compound | TGI [1] | TGI [2] | TGI [3] | TGI [4] | TGI [5] | TGI [6] | TGI [7] | TGI [8] | TGI [9] | TGI [10] | GI50 [1] | GI50 [2] | GI50 [3] | GI50 [5] | GI50 [6] | GI50 [7] | GI50 [8] | GI50 [9] | GI50 [10] |
| --- | --- | --- | --- | --- | --- | --- | --- | --- | --- | --- | --- | --- | --- | --- | --- | --- | --- | --- | --- |
| O=c1ccn(CC2(CO)CCCC2)c(=O)[nH]1 | > 100 µM | > 100 µM | > 100 µM | > 100 µM | > 100 µM | > 100 µM | > 100 µM | > 100 µM | > 100 µM | > 100 µM | – | – | – | – | – | – | – | – | – |
| COc1cc2nc(Nc3cccc(Br)c3)nc(Nc3cccc(Br)c3)c2cc1OC | 30.9 µM | 30.4 µM | 32.4 µM | 33.3 µM | 29.4 µM | 29.8 µM | 39.7 µM | 36 µM | 33.7 µM | 36.1 µM | – | – | – | – | – | – | – | – | – |
| CC(C)(C)n1c(=O)n2n(c1=O)Cc1cccc3cccc(c13)C2 | 50.3 µM | 73.5 µM | 92.4 µM | > 100 µM | 44.7 µM | 36.9 µM | > 100 µM | 62 µM | 27.1 µM | 38.2 µM | – | – | – | – | – | – | – | – | – |
| CCN(CC)CCC(=O)c1ccc(Sc2ccc(F)cc2)cc1 | 42.9 µM | 37.2 µM | 31 µM | 33.9 µM | 33.2 µM | 29.5 µM | 34 µM | 32.4 µM | 35.1 µM | 45.1 µM | – | – | – | – | – | – | – | – | – |
| C=CCc1[nH]c2c(OCc3ccccc3)cc(N(CC=C)C(C)=O)cc2c1C | 23.6 µM | 25 µM | 24.9 µM | 26.8 µM | 25.3 µM | 29.9 µM | 23.2 µM | 33.5 µM | 26.7 µM | 26.1 µM | – | – | – | – | – | – | – | – | – |
| COC(=O)CCC(C)[C@H]1CCC2C3C(C[C@H](OC(C)=O)[C@@]21C)[C@@]1(C)CCC2(C[C@H]1C[C@H]3OC(C)=O)OOC1(CCCC1)OO2 (some centres not stated) | 87.6 µM | > 100 µM | > 100 µM | > 100 µM | > 100 µM | 92 µM | > 100 µM | > 100 µM | > 100 µM | > 100 µM | – | – | – | – | – | – | – | – | – |
| CC1(C)CC(=O)C(/C=N/C(N)=S)=C(O)C1 | > 100 µM | > 100 µM | > 100 µM | > 100 µM | > 100 µM | > 100 µM | > 100 µM | > 100 µM | > 100 µM | > 100 µM | – | – | – | – | – | – | – | – | – |
| COc1ccc(CC2C3=C(CCN2C(=O)C2CCC2)CC2(CC3)OCCO2)cc1O (configuration not stated) | > 100 µM | > 100 µM | > 100 µM | 44.6 µM | > 100 µM | > 100 µM | > 100 µM | 20 µM | 37.5 µM | > 100 µM | – | – | – | – | – | – | – | – | – |
| CC(=O)C1C(=O)C(=O)N(c2ccccc2)C1=O (configuration not stated) | > 100 µM | > 100 µM | > 100 µM | > 100 µM | > 100 µM | > 100 µM | > 100 µM | > 100 µM | > 100 µM | > 100 µM | – | – | – | – | – | – | – | – | – |
| Cn1c(NNc2ccccc2)cc(=O)[nH]c1=O | > 100 µM | > 100 µM | > 100 µM | > 100 µM | > 100 µM | > 100 µM | > 100 µM | 43.1 µM | > 100 µM | > 100 µM | – | – | – | – | – | – | – | – | – |
| O=C1C(C(O)(C(F)(F)Cl)C(F)(F)Cl)CCCC1C(O)(C(F)(F)Cl)C(F)(F)Cl (configuration not stated) | > 10 µM | > 10 µM | > 10 µM | > 10 µM | > 10 µM | > 10 µM | > 10 µM | > 10 µM | > 10 µM | > 10 µM | – | – | – | – | – | – | – | – | – |
| Cc1cc(O)c2c(c1O)C(=O)c1cccc(O)c1C2=O | > 100 µM | > 100 µM | > 100 µM | > 100 µM | > 100 µM | > 100 µM | > 100 µM | > 100 µM | > 100 µM | > 100 µM | – | – | – | – | – | – | – | – | – |
| C=C1CCCC2[C@](C)(CC3=C(Cl)C(=O)C=C(OC)C3=O)C(C)CC[C@]12C (some centres not stated) | 14.2 µM | 4.23 µM | 6.18 µM | 13.1 µM | 10.7 µM | 8.83 µM | 16.9 µM | 14.2 µM | 12.1 µM | 13.5 µM | – | – | – | – | – | – | – | – | – |
| CCOc1ccc2nc3nc(=O)[nH]c(C)c3c(NCCCN(CC)CC)c2c1 | > 100 µM | > 100 µM | > 100 µM | > 100 µM | > 100 µM | > 100 µM | > 100 µM | > 100 µM | > 100 µM | > 100 µM | – | – | – | – | – | – | – | – | – |
| CCCCCC1CC=CC(=O)O1 (configuration not stated) | 13.8 µM | 25.1 µM | 40.3 µM | 43 µM | 33 µM | 20.5 µM | 24.1 µM | 20.2 µM | 23.1 µM | 23.5 µM | – | – | – | – | – | – | – | – | – |
| COc1cc([C@@H]2c3cc4c(c(O)c3C[C@H]3COC(=O)[C@@H]32)OCO4)cc(OC)c1OC | – | – | – | – | 121 µM and > 100 µM | – | > 100 µM | 0.000802 µM | – | – | 2.3 µM | 0.334 µM | 0.0349 µM | 1.43 µM | 0.222 µM | 0.392 µM | 0.000192 µM | 0.281 µM | 1.02 µM |
| CC1=NN(c2nc(N)nc(CBr)n2)C(C)(C)C1 | 20.6 µM | 1.89 µM | 11.3 µM | 29.9 µM | 13.9 µM | 3.06 µM | 19.8 µM | 27.8 µM | 12 µM | 26.2 µM | – | – | – | – | – | – | – | – | – |
| CCCC(=O)NC(Nc1cc(C)ccn1)(C(=O)OCC)C(F)(F)F (configuration not stated) | > 100 µM | > 100 µM | > 100 µM | > 100 µM | > 100 µM | > 100 µM | > 100 µM | > 100 µM | > 100 µM | > 100 µM | – | – | – | – | – | – | – | – | – |
| COc1ccc(OC)c(CSc2ccc(OC)c(OC)c2)c1 | > 100 µM | > 100 µM | > 100 µM | > 100 µM | > 100 µM | > 100 µM | > 100 µM | > 100 µM | > 100 µM | > 100 µM | – | – | – | – | – | – | – | – | – |
| NC(CSCc1ccc(I)cc1)C(=O)O (configuration not stated) | > 100 µM | > 100 µM | > 100 µM | > 100 µM | > 100 µM | > 100 µM | > 100 µM | > 100 µM | > 100 µM | > 100 µM | – | – | – | – | – | – | – | – | – |
| c1ccc2c(CN3CCN(Cc4c[nH]c5ccccc45)CC3)c[nH]c2c1 | > 100 µM | 30.6 µM | 36.9 µM | 42.7 µM | 40.6 µM | 69.4 µM | 31.2 µM | 32.4 µM | 28.8 µM | 31.5 µM | – | – | – | – | – | – | – | – | – |

Source: PubChem BioAssay (NCI)
